According to patent US20130267558A1, “PHARMACEUTICAL COMPOSITION FOR TREATING OR PREVENTING ALCOHOLIC LIVER DISEASES, CONTAINING CILOSTAZOL AS ACTIVE INGREDIENT” (INDUSTRY-ACADEMIC COOPERATION FOUNDATION YEUNGNAM UNIVERSITY, priority 2010, published 2013):

Key:
[1] = system: primary cultured liver cells; experiment: MTS assay, viability of primary cultured liver cells treated with ethanol; assay type: cell-based, Sprague-Dawley rats or C57BL/6 mouse; conditions: pretreatment 100 μM; ethanol 100, 200 mM for 24 hour; vs DMSO group; FIG. 1
Protocol: Liver cells were separated from Sprague-Dawley rats (8 to 10 weeks) or C57BL/6 (8 to 10 weeks) mouse via in situ collagenase perfusion, and then cultured in DMEM containing 10% FBS, 100 U/ml penicillin, 100 μg/ml streptomycin, 4 mM L-glutamine, and 100 nM dexamethasone. After 3 hours, the culture solution was replaced with DMEM including 0.1% FBS and 10 nM dexamethasone, and then, cultured for 16 hours (overnight). For the treatment, the cells were treated with various concentrations of ethanol (0, 100, 200 mM) alone or together with cilostazol (Otsuka) or pentoxifylline which is used as a therapeutic agent for alcoholic hepatitis, and the resultant cell reactions were compared with each other. After the treatment with ethanol, a culture dish was sealed with a parafilm to prevent evaporation of ethanol. MTS assay was performed in the following manner to identify effects of cilostazol on decreased liver cell viability caused by ethanol. That is, the viability of liver cells was measured by using a MTS assay kit (Promega, Madison, Wis., USA). […] An MTS solution were added to the respective wells and then, the cells were incubated at 37° C. for 4 hours, and absorption of the result was measured at a wavelength of 490 nm.

[2] = system: caspase-3; experiment: Caspase-3 activity by Western blotting with cleaved caspase-3 antibody in ethanol-treated liver cells; assay type: cell-based, Sprague-Dawley rats or C57BL/6 mouse; conditions: pretreatment 100 μM; ethanol 24 hours; FIG. 2
Protocol: (§1) Liver cells were separated from Sprague-Dawley rats (8 to 10 weeks) or C57BL/6 (8 to 10 weeks) mouse via in situ collagenase perfusion, and then cultured in DMEM containing 10% FBS, 100 U/ml penicillin, 100 μg/ml streptomycin, 4 mM L-glutamine, and 100 nM dexamethasone. After 3 hours, the culture solution was replaced with DMEM including 0.1% FBS and 10 nM dexamethasone, and then, cultured for 16 hours (overnight). For the treatment, the cells were treated with various concentrations of ethanol (0, 100, 200 mM) alone or together with cilostazol (Otsuka) or pentoxifylline which is used as a therapeutic agent for alcoholic hepatitis, and the resultant cell reactions were compared with each other. After the treatment with ethanol, a culture dish was sealed with a parafilm to prevent evaporation of ethanol.

[3] = system: caspase-3; experiment: Caspase-3 colorimetric activity assay kit (DEVD-pNA) in ethanol-treated liver cells; assay type: cell-based, Sprague-Dawley rats or C57BL/6 mouse; conditions: liver cells pretreated, FIG. 3
Protocol: as §1, with “ethanol. Also, the caspase-3 activity was measured by using an activity assay kit (R&D kit). That is, caspase-3 activity was measured by using a caspase-3 colorimetric assay kit (R&D system, Minneapolis, Minn.). Liver cells were lysed by using lysis buffer, and then the protein (150 μg) was incubated with DEVD-pNA, a caspase-3 substrate at 37° C. for 2 hours, and then absorption of the product was measured at a wavelength of 405 nm.” for “ethanol.”

[4] = system: TNF-α; experiment: LPS-stimulated TNF-α production in RAW264.7 macrophage (ELISA); assay type: cell-based; conditions: pretreatment, LPS 50 ng/ml, 4 hours, FIG. 5
Protocol: RAW264.7 cells were obtained from Korean Cell Line Bank and cultured in a DMEM solution containing 10% FBS, 100 U/ml penicillin, and 100 μg/ml streptomycin for use in experiments. To compare direct effects of ethanol with indirect effects caused by endotoxin, effects of LPS were identified. RAW264.7 macrophage prepared as described above was treated with LPS (50 ng/ml) for 4 hours, and then, TNF-α level in the cell culture was measured by using ELISA kit (R&D).

[5] = system: RAW264.7 macrophage; experiment: LPS-induced ROS production in RAW264.7 macrophage (H2DCFDA, FACS); assay type: cell-based; conditions: pretreatment 100 μM for 1 hour; LPS 50 ng/ml, 4 hours; FIG. 7
Protocol: RAW264.7 cells were obtained from Korean Cell Line Bank and cultured in a DMEM solution containing 10% FBS, 100 U/ml penicillin, and 100 μg/ml streptomycin for use in experiments. To compare direct effects of ethanol with indirect effects caused by endotoxin, effects of LPS were identified. RAW264.7 macrophage prepared as described above was treated with LPS (50 ng/ml) for 0 to 18 hours. Separately, RAW264.7 macrophage prepared as described above was pretreated with cilostazol (100 μM) or pentoxifylline (100 μM) for 1 hour and then, treated with LPS (50 ng/ml) for 4 hours. The RAW264.7 macrophages were treated with H2DCFDA (50 μM) for 40 minutes, and then, the production of ROS was evaluated by using FACS.

[6] = system: primary cultured liver cells; experiment: Hoechst staining of liver cell apoptosis caused by ethanol; assay type: cell-based, Sprague-Dawley rats or C57BL/6 mouse; conditions: pretreatment; Hoechst 33342; FIG. 4
Protocol: Liver cells were separated from Sprague-Dawley rats (8 to 10 weeks) or C57BL/6 (8 to 10 weeks) mouse via in situ collagenase perfusion, and then cultured in DMEM containing 10% FBS, 100 U/ml penicillin, 100 μg/ml streptomycin, 4 mM L-glutamine, and 100 nM dexamethasone. After 3 hours, the culture solution was replaced with DMEM including 0.1% FBS and 10 nM dexamethasone, and then, cultured for 16 hours (overnight).
For the treatment, the cells were treated with various concentrations of ethanol (0, 100, 200 mM) alone or together with cilostazol (Otsuka) or pentoxifylline which is used as a therapeutic agent for alcoholic hepatitis, and the resultant cell reactions were compared with each other. After the treatment with ethanol, a culture dish was sealed with a parafilm to prevent evaporation of ethanol.

[7] = system: caspase-3; experiment: Liver caspase-3 activity in alcohol-induced acute liver injury animal model; assay type: in vivo; conditions: mice; oral 100 mg/kg for 4 days before ethanol 6 g/kg oral; FIG. 9
Protocol: Also, the caspase-3 activity was measured by using an activity assay kit (R&D kit). That is, caspase-3 activity was measured by using a caspase-3 colorimetric assay kit (R&D system, Minneapolis, Minn.). Liver cells were lysed by using lysis buffer, and then the protein (150 μg) was incubated with DEVD-pNA, a caspase-3 substrate at 37° C. for 2 hours, and then absorption of the product was measured at a wavelength of 405 nm.

[8] = system: FAS (fatty acid synthase) gene; experiment: Liver FAS gene expression (real-time PCR) in alcohol-induced acute liver injury animal model; assay type: in vivo; conditions: mice; oral 100 mg/kg for 4 days before ethanol 6 g/kg oral; FAS mRNA normalized to β-actin; FIG. 11
Protocol: Eight-week old mice were subjected to binge alcohol drinking to induce liver damage. That is, mice were administered orally 6 g/kg of ethanol once. Cilostazol was orally administered in doses of 50 mg/kg/day and 100 mg/kg/day for 4 days before ethanol administration, and ethanol was orally administered 1 h after the last cilostazol administration. Then, animals were sacrificed at different time after ethanol administration.
Effects of cilostazol on the expression of FAS gene were identified by real-time PCR assay. That is, total RNA was extracted from liver tissues by using a trizol reagent, and then 1 μg of total RNA was reverse-transcribed into cDNA by using high-performance cDNA reverse transcription kit (Applied Biosystems, Foster City, Calif., USA). The PCR reaction was performed such that cDNA, the respective primers were reacted with power SYBR Green PCR master mix (Applied Biosystems) by using real-time PCR 7500 software system (Applied Biosystem). The PCR conditions were initial incubation at 95° C. for 10 minutes, followed by 45 cycles of 95° C. for 15 seconds, 55° C. for 20 seconds, and 72° C. for 35 seconds.
FAS mRNA level was normalized to β-actin mRNA level, and shown in fold increase.

Row | Structure (SMILES) | liver cell viability decreased by ethanol, effect of pretreatment [1] | caspase-3 activity (cleaved caspase-3, Western blot) increased by ethanol, effect of pretreatment [2] | caspase-3 activity (activity assay kit) increased by ethanol, effect of pretreatment [3] | inhibitory effect on LPS-increased TNF-α level in culture media [4] | production of ROS induced by LPS, effect of pretreatment [5] | nuclear fragmentation caused by ethanol [6] | decrease of LPS-increased TNF-α level in culture media ([4]; p=0.016) | liver caspase-3 activity after ethanol administration [7] | reduction of liver FAS gene expression after ethanol administration [8]
1 | CC(=O)CCCCn1c(=O)c2c(ncn2C)n(C)c1=O [pentoxifylline] | did not significantly improve the cell viability | reduced | reduced caspase-3 activity caused by ethanol, but the inhibitory effect of pentoxifylline was smaller than that of cilostazol | did not show significant inhibitory effects | neither cilostazol nor pentoxifylline significantly inhibited | – | – | – | –
2 | O=C1CCc2cc(OCCCCc3nnnn3C3CCCCC3)ccc2N1 [cilostazol] | significantly recovered | cilostazol showed better inhibitory effects than pentoxifylline | almost completely inhibited | – | neither cilostazol nor pentoxifylline significantly inhibited | reduced | ~50% | significantly reduced | about 30%
